Assay results from patent publication US7744867B2, “PTPase inhibitors and method of using same” (The Cleveland Clinic Foundation, priority 2001, dated 2010).

Columns and labels:
NB4 cells = assay: Differentiation, proliferation and cell cycle of AML cell line; type: cell-based, human
Method: Cell lines, cell culture, and cell proliferation assay. The NB4 cell line was a gift from Dr. Dan Lindner of CCF. HL60 and U937 cell lines were purchased from ATCC. These human AML cell lines were maintained in RPMI 1640 medium supplemented with 10% fetal calf serum (FCS). For cell proliferation assays, cells were cultured at 37° C. in 10% FCS medium containing various amounts of sodium stibogluconate for 6 days. The cell numbers in the cultures were determined by an MTT assay as described previously.
Differentiation of AML cell lines was assessed by their ability to produce superoxide as measured by reduction of NBT to formazan and by analysis of expression of CD11b surface marker by flow cytometry. For NBT reduction, each cell suspension was mixed with an equal volume of solution containing 1 mg/ml of NBT (Sigma) and 2.5 μg/ml of TPA for 30 minutes at 37° C. After incubation, cells containing the purple formazan deposits and cells devoid of NBT-reducing activity (white cells) in each sample were determined by counting 200 cells under microscope. We expressed the data as percentage of the following ratio: purple cells/purple+white cells. For analysis of cell surface antigens, cells were exposed to phycoerythrin (PE)−conjugated murine anti-human CD11b (DAKO corp, Carpinteria, Calif.). Analysis of fluorescence was performed on a FACScan flow cytometer (Beckton Dickinson, Mountain View, Calif.). The cell cycle was analyzed by flow cytometry after 3 days of culture of NB4 cells in the absence or presence of sodium stibogluconate (250 μg/ml) or ATRA (1 μM). Briefly, the cells were fixed in cold ethanol and incubated for 30 minutes at 4° C. in the dark with a solution of […] propidium iodide, 1 mg/ml RNase and 0.1% NP-40. Analysis was performed immediately after staining using the CELLFIT program (Becton Dickinson, Mountain View, Calif.).

Leishmaniasis = conditions: cited from earlier work
[1] = system: DR cells (Burkitt's Lymphoma); assay: Growth inhibition of human tumor cell lines (MTT); type: cell-based
Method: (§1) FIG. 8 illustrates growth inhibition of human cell lines of hematopoietic malignancies by sodium stibogluconate and/or IFNα: A and B. Growth of DS and DR cells cultured in the absence or presence of various amounts of sodium stibogluconate and/or IFNα (1,000 u/ml) for 3 days was measured by MTT assays; C. Percentage of growth inhibition of DR cells calculated from data in B; D. Percentage of growth inhibition of DR cells by IFNα (1,000 u/ml) and various amounts of sodium stibogluconate in day 6 cultures measured by MTT assays; E. Percentage of growth inhibition of U266 cells by IFNα (1,000 u/ml) and various amounts of sodium stibogluconate in day 6 cultures as measured by MTT assays.

[2] = system: U266 cells (Multiple myeloma); assay: Growth inhibition of human tumor cell lines (MTT); type: cell-based; conditions: SS 12.5 μg/ml, IFNα 1,000 u/ml, alone or combined
Method: as §1

[3] = system: DU145 human prostate carcinoma xenografts; assay: Xenografts of human prostate carcinoma in nude mice, tumor volume; type: in vivo; conditions: day 25, IFNα 500,000 U s.c. daily, sodium stibogluconate 12 mg Sb s.c. daily, alone or combined
Description: FIG. 11 illustrates that sodium stibogluconate appears to synergize with IFNα against WM9 human melanoma tumors in nude mice. IFNα or both on the growth of xenografts of human melanoma cell line WM9 and human prostate carcinoma cell line DU-145 in athymic nude mice. Nude mice of 4 weeks old were inoculated subcutaneously (s.c.) with WM9 human melanoma cells (3×10^6 cells/site) (A) or DU-145 human prostate cancer cells (2×10^6 cells/site) (B) on day 0. Starting on day 2, the mice were subjected to no treatment (Control) or treatment with IFNα (500,000 U, s.c., daily), sodium stibogluconate (12 mg, s.c., daily) or both (Combo). Tumor volume in the nude mice (4 mice/group, 2 tumors/mouse) was measured on the days as indicated. Tumor volume was calculated by the equation: (length×width^2)/2 to compare tumor growth rates. All mice survived by the end of the experiment. […]
For each of the cell lines, each of 16 mice received subcutaneous injection at the chest area of 3×10^6 cells/site (WM9) or 2×10^6 cells/site (DU145), two sites/mouse, on day 0. […] Tumor size was measured with a caliper to determine the two perpendicular diameters of each tumor. Tumor volume was calculated using the method of the NCI (length×width^2 in millimeters/2=volume in cubic millimeters).

| Molecule | proliferation of NB4 cells (NB4 cells; 12.5-400 μg/ml, 6 days) | cell cycle arrest (DNA content analysis) (NB4 cells; 3 days, sodium stibogluconate 250 μg/ml, ATRA 1 μM) | expression levels of PML/RARα chimeric protein (NB4 cells; NB4 cells) | NB4 cell differentiation (NBT positive cells) (NB4 cells; dose- and time-dependent) | efficacy in Leishmaniasis (Leishmaniasis; 20 mg Sb/kg body weight per day i.m. daily for 10-14 days) | known toxicity profile (Leishmaniasis; human, in vivo) | single dose used without serious toxicity (Leishmaniasis; human, in vivo) | % of growth inhibition by day 6 (±s.d.) ([1]; DR, SS 12.5 μg/ml, IFNα 1,000 u/ml, alone or combined) | growth inhibition of DR cells, day 3 ([1]; IFNα 1,000 u/ml alone or with various amounts of sodium stibogluconate, day 3) | % of growth inhibition by day 6 (±s.d.) [2] | average tumor volume, of the control [3] |
| --- | --- | --- | --- | --- | --- | --- | --- | --- | --- | --- | --- |
| O.O.O.O.O.O.O.O.O.O=C([O-])[C@@H]1[O][Sb]2([O-])([O][Sb]34([OH])[O][C@H]([C@H](O)CO)[C@H]([O]3)[C@H](C(=O)[O-])[O]4)[O][C@H]([C@H](O)CO)[C@@H]1[O]2.[Na+].[Na+].[Na+] [sodium stibogluconate] | markedly inhibited | growth arrest at S phase | no detectable effect | induced | 70-100% | modest cardiac toxicity and leukopenia | up to 143 mg Sb/kg | – | – | – | – |
| IFNα | – | – | – | – | – | – | – | 39% | 19% | 78 (10) % | approximately 70% |
